Experimental findings from patent EP0573883A1, “Utilization of 3 substituted aryl-5-alkyl-isoxazole-4-carboxylic acid derivatives against endoparasites new 3-substituted aryl-5-alkyl-isoxazole-4-carboxylic acid derivatives and process for their preparation” (BAYER AG, priority 1992, dated 1993) are described below.

For assay [1], the system named is Trichostrongylus colubriformis. Briefly: In vivo nematode test, Trichostrongylus colubriformis / sheep (faecal egg count before and after treatment). The conditions noted are these: experimentally infected sheep (Schaf), treated after the prepatent period, pure active substance in gelatin capsules, oral, dose giving complete cessation of egg excretion, read-out: Dosis effectiva. The text has this:
Trichostrongylus colubriformis / Schaf
Experimentell mit Trichostrongylus colubriformis infizierte Schafe wurden nach Ablauf der Präpatenzzeit des Parasiten behandelt. Die Wirkstoffe wurden als reiner Wirkstoff in Gelatinekapseln oral appliziert.
(§1) Der Wirkungsgrad wird dadurch bestimmt, daß man die mit dem Kot ausgeschiedenen Wurmeier vor und nach der Behandlung quantitativ auszählt.
(§2) Ein völliges Sistieren der Eiausscheidung nach der Behandlung bedeutet, daß die Würmer abgetrieben wurden oder so geschädigt sind, daß sie keine Eier mehr produzieren (Dosis effectiva).
(§3) Geprüfte Wirkstoffe und wirksame Dosierungen (Dosis effectiva) sind aus der nachfolgenden Tabelle ersichtlich.

For a further assay, the system named is Haemonchus contortus. In words: In vivo nematode test, Haemonchus contortus / sheep (faecal egg count before and after treatment). The conditions noted are these: experimentally infected sheep (Schaf), treated after the prepatent period, pure active substance in gelatin capsules, oral, dose giving complete cessation of egg excretion, read-out: Dosis effectiva.
Description: Haemonchus contortus / Schaf
Experimentell mit Haemonchus contortus infizierte Schafe wurden nach Ablauf der Präpatenzzeit des Parasiten behandelt. Die Wirkstoffe wurden als reiner Wirkstoff in Gelatinekapseln oral appliziert.
as §1, §2, §3

The structures appear in SMILES notation.

As for `CCCCCCCCCCCCCCCCCCNC(=O)c1c(-c2c(Cl)cccc2Cl)noc1CC` [Beispiel 1, N-Oktadecyl-3-(2,6-dichlor-phenyl)-5-ethyl-isoxazol-4-carbonsäureamid], the minimal effective dose in assay [1] is 10 mg/kg; in the assay with Haemonchus contortus it was 5 mg/kg. For `Cc1ccc(OC(=O)c2c(-c3c(Cl)cccc3Cl)noc2C)cc1` [Beispiel 59], in that order: 5 mg/kg and 10 mg/kg. For the compound `Cc1onc(-c2c(Cl)cccc2Cl)c1C(=O)Oc1ccc(Cl)cc1` [Beispiel 62], the minimal effective dose (in assay [1]; in the assay on Haemonchus contortus) was 10 mg/kg each time. As to `CCCCCCCCCCCCCCCCCCNC(=O)c1c(-c2c(Cl)cccc2Cl)noc1C` [Beispiel 83], the minimal effective dose (in assay [1]; in the assay on Haemonchus contortus) was 10 mg/kg throughout. On to `Cc1onc(-c2c(Cl)cccc2Cl)c1C(=O)Nc1cc(F)cc(F)c1` [Beispiel 103], for which, in the assay on Haemonchus contortus, the minimal effective dose is 10 mg/kg. On to `Cc1ccccc1NC(=O)c1c(-c2c(Cl)cccc2Cl)noc1C` [Beispiel 116], for which the minimal effective dose in assay [1] came out at 5 mg/kg; in the assay on Haemonchus contortus, 10 mg/kg. For `Cc1ccc(NC(=O)c2c(-c3c(Cl)cccc3Cl)noc2C)cc1` [Beispiel 119], in that order: 10 mg/kg and 5 mg/kg. For `CCc1onc(-c2c(Cl)cccc2Cl)c1C(=O)Nc1ccc(SC(F)(F)F)cc1` [Beispiel 127], the results for the minimal effective dose (in assay [1]; in the assay with Haemonchus contortus) were 5 mg/kg and 10 mg/kg, respectively. Regarding `Cc1ccccc1NC(=O)c1c(-c2c(F)cccc2Cl)noc1C` [Beispiel 221], the minimal effective dose in the assay with Haemonchus contortus amounted to 5 mg/kg. Regarding `Cc1onc(-c2c(F)cccc2Cl)c1C(=O)Nc1ccc(Cl)cc1F` [Beispiel 230], the figures for the minimal effective dose (in assay [1]; with Haemonchus contortus) were 5 mg/kg and 10 mg/kg, respectively.
